Laboratory results: ChEMBL document CHEMBL1201862, “PubChem BioAssay data set” (2004)
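Step 1: Grow cells in 96-well plates. Step 2: Expose to compound for 48 hours at 5 concentrations. Step 3: Interpolate endpoints linearly; if unreached, use highest concentration. GI50 is the concentration that inhibits growth by half.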 Active and inactive are the calls of the source. Rule as the data show it: active = GI50 up to about 1.1 µM and inactive = higher.

What was measured:
Test in all cases: inhibition of tumour cell growth, NCI panel, 48 h
786-0 = tested on: 786-0
A498 = tested on: A498
A549 = tested on: A549
ACHN = tested on: ACHN
BT-549 = tested on: BT-549
CAKI-1 = tested on: CAKI-1
CCRF-CEM = tested on: CCRF-CEM
COLO 205 = tested on: COLO 205
DU-145 = tested on: DU-145
HCC 2998 = tested on: HCC 2998
HCT-116 = tested on: HCT-116
HCT-15 = tested on: HCT-15
HOP-62 = tested on: HOP-62
HOP-92 = tested on: HOP-92
HT-29 = tested on: HT-29
Hs-578T = tested on: Hs-578T
IGROV-1 = tested on: IGROV-1
K562 = tested on: K562
KM12 = tested on: KM12
M14 = tested on: M14
MCF7 = tested on: MCF7
MDA-MB-231 = tested on: MDA-MB-231
MDA-MB-435 = tested on: MDA-MB-435
MDA-N = tested on: MDA-N
MOLT-4 = tested on: MOLT-4
Malme-3M = tested on: Malme-3M
NCI-H226 = tested on: NCI-H226
NCI-H23 = tested on: NCI-H23
NCI-H460 = tested on: NCI-H460
NCI-H522 = tested on: NCI-H522
NCI/ADR-RES = tested on: NCI/ADR-RES
OVCAR-3 = tested on: OVCAR-3
OVCAR-4 = tested on: OVCAR-4
OVCAR-5 = tested on: OVCAR-5
OVCAR-8 = tested on: OVCAR-8
PC-3 = tested on: PC-3
RPMI-8226 = tested on: RPMI-8226
RXF 393 = tested on: RXF 393
SF-268 = tested on: SF-268
SF-295 = tested on: SF-295
SF-539 = tested on: SF-539
SK-MEL-28 = tested on: SK-MEL-28
SK-MEL-2 = tested on: SK-MEL-2
SK-MEL-5 = tested on: SK-MEL-5
SK-OV-3 = tested on: SK-OV-3
SN12C = tested on: SN12C
SNB-75 = tested on: SNB-75
SR = tested on: SR
SW-620 = tested on: SW-620
T47D = tested on: T47D
TK-10 = tested on: TK-10
U-251 = tested on: U-251
UACC-257 = tested on: UACC-257
UACC-62 = tested on: UACC-62
UO-31 = tested on: UO-31
EKVX = tested on: EKVX
HL-60 = tested on: HL-60
LOX IMVI = tested on: LOX IMVI
SNB-19 = tested on: SNB-19

For CC(=O)N1N=C(c2c(O)ccc3ccccc23)CC1C(=O)c1ccco1 (centres undefined), the GI50 (786-0) was 30.8 µM (inactive), the GI50 (A498) was 41.5 µM (inactive) and the GI50 (A549) was 28.2 µM (inactive). The GI50 (ACHN) was 33 µM (inactive), the GI50 (BT-549) was 18.4 µM (inactive) and the GI50 (CAKI-1) was 42.6 µM (inactive). The GI50 (CCRF-CEM) was 14.9 µM (inactive), the GI50 (COLO 205) was 24.7 µM (inactive) and the GI50 (DU-145) was 47.4 µM (inactive). The GI50 (HCC 2998) was 50.1 µM (inactive), the GI50 (HCT-116) was 20.4 µM (inactive) and the GI50 (HCT-15) was 37.9 µM. The GI50 (HOP-62) was 29.8 µM (inactive), the GI50 (HOP-92) was 52.7 µM (inactive) and the GI50 (HT-29) was 33.8 µM (inactive). The GI50 (Hs-578T) was 34.5 µM (inactive), the GI50 (IGROV-1) was 27.1 µM (inactive) and the GI50 (K562) was 16.9 µM (inactive). For the same compound, the GI50 (KM12) was 28.1 µM (inactive), the GI50 (M14) was 22.4 µM (inactive) and the GI50 (MCF7) was 14.5 µM (inactive). The GI50 (MDA-MB-231) was 18.4 µM (inactive), the GI50 (MDA-MB-435) was 28.5 µM (inactive) and the GI50 (MDA-N) was 23.9 µM (inactive). For the same compound, the GI50 (MOLT-4) was 13.2 µM (inactive), the GI50 (Malme-3M) was 30.5 µM (inactive) and the GI50 (NCI-H226) was 77.1 µM (inactive). For the same compound, the GI50 (NCI-H23) was 22.2 µM (inactive), the GI50 (NCI-H460) was 34.5 µM (inactive) and the GI50 (NCI-H522) was 28.2 µM (inactive). The GI50 (NCI/ADR-RES) was 28.2 µM (inactive), the GI50 (OVCAR-3) was 17.7 µM (inactive) and the GI50 (OVCAR-4) was 36 µM (inactive). For the same compound, the GI50 (OVCAR-5) was 55 µM (inactive), the GI50 (OVCAR-8) was 39 µM (inactive) and the GI50 (PC-3) was 23 µM (inactive). For the same compound, the GI50 (RPMI-8226) was 14 µM (inactive), the GI50 (RXF 393) was 25.1 µM (inactive) and the GI50 (SF-268) was 31.1 µM (inactive). The GI50 (SF-295) was 35.2 µM (inactive), the GI50 (SF-539) was 21.1 µM (inactive) and the GI50 (SK-MEL-28) was 30.9 µM (inactive). For the same compound, the GI50 (SK-MEL-2) was 16.6 µM (inactive), the GI50 (SK-MEL-5) was 22.8 µM (inactive) and the GI50 (SK-OV-3) was 48.6 µM (inactive). For the same compound, the GI50 (SN12C) was 32.4 µM (inactive), the GI50 (SNB-75) was 17.9 µM (inactive) and the GI50 (SR) was 13.6 µM (inactive). The GI50 (SW-620) was 33.7 µM (inactive), the GI50 (T47D) was 39.8 µM (inactive) and the GI50 (TK-10) was 60.3 µM (inactive). The GI50 (U-251) was 34.3 µM (inactive), the GI50 (UACC-257) was 31.6 µM (inactive) and the GI50 (UACC-62) was 16.4 µM (inactive). The GI50 (UO-31) was 21.6 µM (inactive).
O=c1[nH][nH]c(=O)n1Cc1cccc(Cn2c(=O)[nH][nH]c2=O)c1 was tested, and the GI50 (786-0) was > 100 µM (inactive), the GI50 (A498) was > 100 µM (inactive) and the GI50 (A549) was > 100 µM (inactive). For the same compound, the GI50 (BT-549) was > 100 µM (inactive), the GI50 (CAKI-1) was > 100 µM (inactive) and the GI50 (CCRF-CEM) was > 100 µM (inactive). The GI50 (COLO 205) was > 100 µM (inactive), the GI50 (DU-145) was > 100 µM (inactive) and the GI50 (EKVX) was > 100 µM (inactive). For the same compound, the GI50 (HCC 2998) was > 100 µM (inactive), the GI50 (HCT-116) was > 100 µM (inactive) and the GI50 (HCT-15) was over 100 µM. For the same compound, the GI50 (HL-60) was > 100 µM (inactive), the GI50 (HT-29) was > 100 µM (inactive) and the GI50 (Hs-578T) was > 100 µM (inactive). The GI50 (K562) was > 100 µM (inactive), the GI50 (KM12) was > 100 µM (inactive) and the GI50 (LOX IMVI) was > 100 µM (inactive). For the same compound, the GI50 (M14) was > 100 µM (inactive), the GI50 (MCF7) was > 100 µM (inactive) and the GI50 (MDA-MB-231) was > 100 µM (inactive). For the same compound, the GI50 (MDA-MB-435) was > 100 µM (inactive), the GI50 (MDA-N) was > 100 µM (inactive) and the GI50 (MOLT-4) was > 100 µM (inactive). The GI50 (Malme-3M) was > 100 µM (inactive), the GI50 (NCI-H226) was > 100 µM (inactive) and the GI50 (NCI-H23) was > 100 µM (inactive). The GI50 (NCI-H460) was > 100 µM (inactive), the GI50 (NCI-H522) was > 100 µM (inactive) and the GI50 (NCI/ADR-RES) was > 100 µM (inactive). For the same compound, the GI50 (OVCAR-3) was > 100 µM (inactive), the GI50 (OVCAR-4) was > 100 µM (inactive) and the GI50 (OVCAR-5) was > 100 µM (inactive). For the same compound, the GI50 (OVCAR-8) was > 100 µM (inactive), the GI50 (PC-3) was > 100 µM (inactive) and the GI50 (RPMI-8226) was > 100 µM (inactive). For the same compound, the GI50 (RXF 393) was > 100 µM (inactive), the GI50 (SF-268) was > 100 µM (inactive) and the GI50 (SF-539) was > 100 µM (inactive). For the same compound, the GI50 (SK-MEL-28) was > 100 µM (inactive), the GI50 (SK-MEL-2) was > 100 µM (inactive) and the GI50 (SK-MEL-5) was > 100 µM (inactive). The GI50 (SK-OV-3) was > 100 µM (inactive), the GI50 (SN12C) was > 100 µM (inactive) and the GI50 (SNB-19) was > 100 µM (inactive). The GI50 (SNB-75) was > 100 µM (inactive), the GI50 (SR) was > 100 µM (inactive) and the GI50 (SW-620) was > 100 µM (inactive). For the same compound, the GI50 (T47D) was > 100 µM (inactive), the GI50 (TK-10) was > 100 µM (inactive) and the GI50 (U-251) was > 100 µM (inactive). The GI50 (UACC-257) was > 100 µM (inactive), the GI50 (UACC-62) was > 100 µM (inactive) and the GI50 (UO-31) was > 100 µM (inactive).
In the case of COc1ccc(C(=O)/C=C/c2ccc(OCC#N)cc2)cc1, the GI50 (786-0) is reported as 42.2 µM (inactive), the GI50 (A498) is reported as 30.6 µM (inactive) and the GI50 (A549) is reported as 28.5 µM (inactive). The GI50 (ACHN) was 36.1 µM (inactive), the GI50 (BT-549) was 17.5 µM (inactive) and the GI50 (CAKI-1) was 19.5 µM (inactive). The GI50 (CCRF-CEM) was 23.2 µM (inactive), the GI50 (COLO 205) was 21.7 µM (inactive) and the GI50 (DU-145) was 30 µM (inactive). The GI50 (EKVX) was 74.5 µM (inactive), the GI50 (HCC 2998) was 17.3 µM (inactive) and the GI50 (HCT-116) was 12.2 µM (inactive). The GI50 (HCT-15) was 23.3 µM, the GI50 (HOP-62) was 53.1 µM (inactive) and the GI50 (HOP-92) was 29 µM (inactive). For the same compound, the GI50 (HT-29) was 33.3 µM (inactive), the GI50 (Hs-578T) was 27.7 µM (inactive) and the GI50 (IGROV-1) was > 10 µM (inactive). The GI50 (K562) was 28.2 µM (inactive), the GI50 (KM12) was 17.5 µM (inactive) and the GI50 (M14) was 20 µM (inactive). The GI50 (MCF7) was 15.8 µM (inactive), the GI50 (MDA-MB-231) was 23.4 µM (inactive) and the GI50 (MDA-MB-435) was 24.7 µM (inactive). For the same compound, the GI50 (MDA-N) was > 10 µM (inactive), the GI50 (MOLT-4) was 23.3 µM (inactive) and the GI50 (Malme-3M) was 20.5 µM (inactive). The GI50 (NCI-H226) was 24.7 µM (inactive), the GI50 (NCI-H23) was 21.3 µM (inactive) and the GI50 (NCI-H460) was 27.3 µM (inactive). The GI50 (NCI-H522) was 18.1 µM (inactive), the GI50 (NCI/ADR-RES) was 20.9 µM (inactive) and the GI50 (OVCAR-3) was 30.8 µM (inactive). For the same compound, the GI50 (OVCAR-4) was 32.7 µM (inactive), the GI50 (OVCAR-5) was > 100 µM (inactive) and the GI50 (OVCAR-8) was 34.5 µM (inactive). The GI50 (PC-3) was 36.6 µM (inactive), the GI50 (RXF 393) was 16.3 µM (inactive) and the GI50 (SF-268) was 34.1 µM (inactive). The GI50 (SF-295) was 41 µM (inactive), the GI50 (SF-539) was 20.4 µM (inactive) and the GI50 (SK-MEL-28) was 17.1 µM (inactive). For the same compound, the GI50 (SK-MEL-5) was 15.1 µM (inactive), the GI50 (SK-OV-3) was 43.3 µM (inactive) and the GI50 (SN12C) was 19.9 µM (inactive). For the same compound, the GI50 (SNB-19) was 26.2 µM (inactive), the GI50 (SNB-75) was 77.1 µM (inactive) and the GI50 (SR) was 22.7 µM (inactive). For the same compound, the GI50 (SW-620) was 17.3 µM (inactive), the GI50 (T47D) was 14.9 µM (inactive) and the GI50 (TK-10) was 38.3 µM (inactive). For the same compound, the GI50 (U-251) was 17.4 µM (inactive), the GI50 (UACC-257) was 38.9 µM (inactive) and the GI50 (UACC-62) was > 10 µM (inactive). For the same compound, the GI50 (UO-31) was 16.6 µM (inactive).
